Source: US20230149560A1, “LIPID COMPOSITIONS FOR DELIVERY OF STING AGONIST COMPOUNDS AND USES THEREOF” (priority 2020, published 2023)

Key:
[1] = test system: MC38 tumors; test: MC38 flank tumor model, single intravenous dose; type: in vivo, mouse; conditions: for tumor burden: MC38, single iv dose day 7: LND 1 5 nmol CDN, parent CDN 5 or 100 nmol, ADU-S100 100 nmol
Experimental: Specifically, a single intravenous injection of LND 1 prepared as described in Example 3 was compared to intravenous injection of parent CDN for effects on tumor growth in a mouse model of colon adenocarcinoma. Tumors were established in 8-10 week old C57BL/6 mice by inoculating the right flank with a subcutaneous injection of 5x10^5 MC38 cells suspended in PBS. On day 7 post-inoculation, the mice were administered an intravenous injection of either parent CDN or LND-formulated CDN at a dose of 5 nmol CDN. Tumor area was measured on days 7, 10, and 12 and compared to untreated mice that received an intratumoral injection of PBS on day 7. The mice were then sacrificed on day 13, and excised tumors were weighed.
Mice were inoculated with MC38 tumors as described above. On day 7 post tumor inoculation, mice were administered a single intravenous injection of parent CDN at a dose of 5 nmol (n=5) or 100 nmol (n=10), ADU-S100 at a dose of 100 nmol (n=10), or LND 1 at a dose of 5 nmol CDN (n=20). Following administration, tumor growth and animal survival was monitored and compared to untreated mice that received an injection of PBS.
It was further investigated whether intravenous administration of LND-formulated CDN was effective in treating well-established MC38 tumors. Specifically, MC38 tumors were allowed to grow for 10 days post-inoculation (mean size of about 45 mm^2), whereupon a single intravenous dose of LND 1 was administered (5 nmol CDN). Control mice were administered PBS only. […] Though mice administered LND-formulated CDN experience some weight loss (about 10% body weight), they recovered full body weight within about 5 days of administration (data not shown).
Systemic administration of LND or liposome particles comprising CDN-PEG-Lipid was compared in the MC38 tumor model. […] The effect on tumor area and survival was evaluated and compared to untreated mice receiving an injection of PBS alone. Tumor size was measured by area (longest dimension x perpendicular dimension) and the mice were euthanized when the tumor area exceeded 150 mm^2 or tumor ulceration became severe.

[2] = test system: 4T1-Luc tumor; test: Orthotopic 4T1 tumor model, single intravenous dose; type: in vivo, mouse; conditions: 4T1 orthotopic, single iv day 7: LND 1 10 nmol CDN; parent CDN 200 nmol
Experimental: To evaluate therapeutic efficacy in the aggressive 4T-1 orthotopic tumors, BALB/c mice were inoculated with 5 x 10^5 4T1-Luc tumor cells that were injected into the fourth mammary fat-pad. At 7 days post tumor inoculation, mice were administered CDN formulated as LND 1 at a dose of 10 nmol CDN or parent CDN at a dose of 200 nmol CDN per mouse by intravenous injection. Control mice were administered PBS only.

Row | Structure (SMILES) | tumor area and mass ([1]; MC38, single iv 5 nmol CDN on day 7, area days 7-12, weight day 13, vs untreated) | tumor burden [1] | tumor growth and survival [2]
1 | CCN(CC)CC.Nc1nc2c(ncn2[C@@H]2O[C@@H]3COP(=O)(S)O[C@H]4[C@H]5OC[C@]4(COP(=O)(O)O[C@@H]2[C@@H]3O)O[C@H]5n2cnc3c(N)ncnc32)c(=O)[nH]1 (stereo partly shown) [parent CDN] | no effect | no reduction of tumor burden | no impact on tumor growth or overall survival
2 | Nc1ncnc2c1ncn2[C@@H]1O[C@@H]2COP(O)(=S)O[C@@H]3C(O)[C@@H](COP(O)(=S)O[C@H]2[C@H]1O)O[C@H]3n1cnc2c(N)ncnc21 (stereo partly shown) [ADU-S100, dithio-(Rp, Rp)-[cyclic[A(2′,5′)pA(3′,5′)p]], reference compound] |  | no reduction of tumor burden | 
